# Assay results: ChEMBL document CHEMBL1201862, “PubChem BioAssay data set” (2004)
#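 Protocol summary: plate cells (96-well), add compound at 5 concentrations, incubate 48 h, interpolate endpoints linearly. GI50 marks 50% less growth.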 Activity calls are given as the source filed them. No stated cut-off is given here; in the data, active = GI50 up to about 1.1 µM and inactive = higher. Numbered stars: 1 amine (or outer) side, 2 acyl side, 3 side chain; on linkers, the order of the positions; unused ones are H or OH. Bridge positions count the residues as written; N and C are the ends. Square brackets hold non-standard residues; d marks the D form. Peptide text beside a SMILES is read from it. X58 = COc1c(N[*:1])cccc1C(=O)O[C@H](C(=O)[C@H](C)C(=O)[*:2])C(C)C; X57 = CC(C)C[C@H](C(=O)[*:2])C(C)C(=O)C1CCCN1[*:1]; NMeY = CN[C@@H](Cc1ccc(O)cc1)C(=O)O; Lac = C[C@H](O)C(=O)O
# Legend:
# Assay in all cases: NCI anticancer screen, dose series, 48 h
# T47D = system: T47D
# EKVX = system: EKVX
# DU-145 = system: DU-145
# ACHN = system: ACHN
# SK-MEL-28 = system: SK-MEL-28
# CAKI-1 = system: CAKI-1
# MDA-MB-231 = system: MDA-MB-231
# HOP-62 = system: HOP-62
# SK-MEL-2 = system: SK-MEL-2
# K562 = system: K562
# SR = system: SR
# SN12C = system: SN12C
# SF-539 = system: SF-539
# 786-0 = system: 786-0
# NCI/ADR-RES = system: NCI/ADR-RES
# PC-3 = system: PC-3
# TK-10 = system: TK-10
# MCF7 = system: MCF7
# LOX IMVI = system: LOX IMVI
# HL-60 = system: HL-60
Structure (SMILES),GI50 (T47D),GI50 (EKVX),GI50 (DU-145),GI50 (ACHN),GI50 (SK-MEL-28),GI50 (CAKI-1),GI50 (MDA-MB-231),GI50 (HOP-62),GI50 (SK-MEL-2),GI50 (K562),GI50 (SR),GI50 (SN12C),GI50 (SF-539),GI50 (786-0),GI50 (NCI/ADR-RES),GI50 (PC-3),GI50 (TK-10),GI50 (MCF7),GI50 (LOX IMVI),GI50 (HL-60)
Cc1ncc([N+](=O)[O-])n1CCN=[N+]=[N-],> 100 µM (inactive),> 100 µM (inactive),> 100 µM (inactive),> 100 µM (inactive),> 100 µM (inactive),> 100 µM (inactive),> 100 µM (inactive),> 100 µM (inactive),> 100 µM (inactive),> 100 µM (inactive),> 100 µM (inactive),> 100 µM (inactive),> 100 µM (inactive),> 100 µM (inactive),> 100 µM (inactive),> 100 µM (inactive),> 100 µM (inactive),> 100 µM (inactive),,
COc1cc([C@H]2CC(=O)C[C@H](c3cc(OC)c(OC)c(OC)c3)C23C(=O)c2ccccc2C3=O)cc(OC)c1OC,> 100 µM (inactive),> 100 µM (inactive),> 100 µM (inactive),59.4 µM (inactive),> 100 µM (inactive),> 100 µM (inactive),56.9 µM (inactive),51.5 µM (inactive),42.4 µM (inactive),44.2 µM (inactive),> 100 µM (inactive),> 100 µM (inactive),45.7 µM (inactive),77.6 µM (inactive),> 100 µM (inactive),> 100 µM (inactive),> 100 µM (inactive),71.3 µM (inactive),,
COC(C)C(O)(C(=O)OCC1=CCN2CCC(O)C12)C(C)(C)O (stereo unspecified),> 100 µM (inactive),> 100 µM (inactive),> 100 µM (inactive),> 100 µM (inactive),> 100 µM (inactive),> 100 µM (inactive),> 100 µM (inactive),,> 100 µM (inactive),,,> 100 µM (inactive),> 100 µM (inactive),> 100 µM (inactive),> 100 µM (inactive),> 100 µM (inactive),> 100 µM (inactive),> 100 µM (inactive),> 100 µM (inactive),> 100 µM (inactive)
CC(C)(C)OC/C=C1\C(=O)O[C@H]2C[C@@H](O[Si](C)(C)C(C)(C)C)C[C@@H]12,27.9 µM (inactive),> 100 µM (inactive),> 100 µM (inactive),> 100 µM (inactive),> 100 µM (inactive),> 100 µM (inactive),> 100 µM (inactive),85.3 µM (inactive),> 100 µM (inactive),26.1 µM (inactive),37.3 µM (inactive),> 100 µM (inactive),,> 100 µM (inactive),88.1 µM (inactive),66.5 µM (inactive),> 100 µM (inactive),35.4 µM (inactive),98.2 µM (inactive),
O=C(CCCN1CCC2(CC1)CC(=O)N(N1CCOCC1)C2=O)c1ccccc1,> 100 µM (inactive),> 100 µM (inactive),> 100 µM (inactive),> 100 µM (inactive),> 100 µM (inactive),> 100 µM (inactive),> 100 µM (inactive),> 100 µM (inactive),,> 100 µM (inactive),> 100 µM (inactive),> 100 µM (inactive),> 100 µM (inactive),> 100 µM (inactive),> 100 µM (inactive),> 100 µM (inactive),> 100 µM (inactive),> 100 µM (inactive),> 100 µM (inactive),> 100 µM (inactive)
Cc1ccc(S(=O)(=O)N2CCN3C(=O)c4ccccc4C32c2ccc(F)cc2)cc1 (stereo unspecified),56.6 µM (inactive),67.8 µM (inactive),78.7 µM (inactive),95.1 µM (inactive),71 µM (inactive),57.3 µM (inactive),> 100 µM (inactive),> 100 µM (inactive),55.6 µM (inactive),42.4 µM (inactive),16.9 µM (inactive),32.7 µM (inactive),,> 100 µM (inactive),52 µM (inactive),32 µM (inactive),> 100 µM (inactive),43.4 µM (inactive),,
CC1(C)SCc2nc3ccccc3n21,> 100 µM (inactive),> 100 µM (inactive),> 100 µM (inactive),> 100 µM (inactive),> 100 µM (inactive),> 100 µM (inactive),> 100 µM (inactive),> 100 µM (inactive),> 100 µM (inactive),> 100 µM (inactive),,> 100 µM (inactive),> 100 µM (inactive),> 100 µM (inactive),> 100 µM (inactive),> 100 µM (inactive),> 100 µM (inactive),> 100 µM (inactive),> 100 µM (inactive),> 100 µM (inactive)
O=C1Nc2ccc(Cl)cc2C(=O)N2CCC[C@@H]12,> 100 µM (inactive),> 100 µM (inactive),> 100 µM (inactive),> 100 µM (inactive),> 100 µM (inactive),> 100 µM (inactive),> 100 µM (inactive),> 100 µM (inactive),> 100 µM (inactive),> 100 µM (inactive),> 100 µM (inactive),> 100 µM (inactive),,> 100 µM (inactive),> 100 µM (inactive),> 100 µM (inactive),> 100 µM (inactive),> 100 µM (inactive),> 100 µM (inactive),
c1ccc(CSC(SCc2ccccc2)c2ccc3c(c2)OCO3)cc1,> 10 µM (inactive),> 10 µM (inactive),> 10 µM (inactive),> 10 µM (inactive),> 10 µM (inactive),> 10 µM (inactive),> 10 µM (inactive),> 10 µM (inactive),> 10 µM (inactive),> 10 µM (inactive),,> 10 µM (inactive),> 10 µM (inactive),> 10 µM (inactive),> 10 µM (inactive),> 10 µM (inactive),> 10 µM (inactive),> 10 µM (inactive),> 10 µM (inactive),> 10 µM (inactive)
O=C1/C(=C/c2ccccc2)N=C(c2ccccc2)N1n1c(-c2ccccc2)nc2ccccc2c1=O,> 100 µM (inactive),48.6 µM (inactive),83 µM (inactive),89.1 µM (inactive),74.3 µM (inactive),,> 100 µM (inactive),> 100 µM (inactive),,61.7 µM (inactive),31 µM (inactive),> 100 µM (inactive),83 µM (inactive),> 100 µM (inactive),63.8 µM (inactive),57.7 µM (inactive),> 100 µM (inactive),34 µM (inactive),35.6 µM (inactive),33.3 µM (inactive)
CCOC(=O)c1nc2ccccc2nc1NCc1ccc(OC)c(OC)c1,> 100 µM (inactive),> 100 µM (inactive),> 100 µM (inactive),> 100 µM (inactive),> 100 µM (inactive),> 100 µM (inactive),> 100 µM (inactive),> 100 µM (inactive),,> 100 µM (inactive),> 100 µM (inactive),> 100 µM (inactive),> 100 µM (inactive),> 100 µM (inactive),> 100 µM (inactive),> 100 µM (inactive),82.4 µM (inactive),> 100 µM (inactive),> 100 µM (inactive),> 100 µM (inactive)
COC(=O)[C@]1(c2cc3ccccc3[nH]2)CC2CN(C(=O)OCc3ccccc3)C1C=C2OC (stereo partly specified),35.8 µM (inactive),36.5 µM (inactive),35.5 µM (inactive),25.8 µM (inactive),38 µM (inactive),28.5 µM (inactive),19.9 µM (inactive),31 µM (inactive),17.5 µM (inactive),37.4 µM (inactive),,36.1 µM (inactive),25.4 µM (inactive),36.7 µM (inactive),38.3 µM (inactive),26.7 µM (inactive),48.1 µM (inactive),25.6 µM (inactive),34 µM (inactive),22.8 µM (inactive)
COc1ccc(-c2nnc3nc4ccccc4n3c2O)cc1,> 100 µM (inactive),> 100 µM (inactive),> 100 µM (inactive),> 100 µM (inactive),> 100 µM (inactive),> 100 µM (inactive),31 µM (inactive),> 100 µM (inactive),> 100 µM (inactive),,,> 100 µM (inactive),> 100 µM (inactive),> 100 µM (inactive),> 100 µM (inactive),> 100 µM (inactive),> 100 µM (inactive),> 100 µM (inactive),> 100 µM (inactive),> 100 µM (inactive)
COc1ccc(C[C@H]2C(=O)O[C@H](C)[C@H](NC(=O)[C@@H](CC(C)C)C(C)C(=O)C3CCCN3C(=O)[C@H](C)O)C(=O)Nc3cccc(c3OC)C(=O)O[C@@H](C(C)C)C(=O)[C@H](C)C(=O)N[C@@H](CC(C)C)C(=O)N3CCC[C@H]3C(=O)N2C)cc1 (stereo partly specified) (H-[Lac][X57]T[X58]LP[NMeY](Me); ester 3-C),> 12.5 µM (inactive),> 12.5 µM (inactive),> 12.5 µM (inactive),12.2 µM (inactive),> 12.5 µM (inactive),> 12.5 µM (inactive),> 12.5 µM (inactive),> 12.5 µM (inactive),> 12.5 µM (inactive),0.372 µM (active),5.09 µM (inactive),> 12.5 µM (inactive),> 12.5 µM (inactive),> 12.5 µM (inactive),> 12.5 µM (inactive),3.85 µM (inactive),> 12.5 µM (inactive),> 12.5 µM (inactive),9.66 µM (inactive),
